For one experiment, the system named is H146 cells. The experiment is described as follows: H146 cell viability, MTT assay. It counts as cell-based. The note with it: Homo sapiens, NCI-H146, 48 h, 48 h exposure. The procedure: (§1) MTT colorimetric assay is based on the mitochondrial reduction of tetrazolium salt by living cells. The viable cell number is proportional to the production of formazan salts, which can be read spectrophotometrically at 540 nm.
(§2) MOLT-4 and H146 cells were purchased from ATCC and cultivated in RPMI 1640 supplemented with 10% heat inactivated fetal bovine serum, penicillin (100 IU/ml), streptomycin (100 μg/ml) and L-glutamine (2 mM). Cells were cultured at 37° C. in a humidified atmosphere containing 5% CO2. Cells were seeded in 96 microwell plates (150 μL per well) and exposed to the compounds for 48 h (3.16 fold serially diluted; 9 concentrations each, triplicates). At the end of incubation time, 15 μL of MTT solution (5 mg/ml) were added per well and the cells were incubated for another 4 h. Then, 100 μL of 10% Sodium Dodecyl Sulfate (SDS)/HCl 10 mM were added per well and the plate was incubated overnight, before measurement of optical density at 540 nm. IC50s were calculated using standard four-parametric curve fitting.
(In general: Formazan colour is commonly taken as a measure of viable cells.)

Another experiment deals with MOLT-4 cells. The experiment is described as follows: MOLT-4 cell viability, MTT assay. It counts as cell-based. The note with it: Homo sapiens, MOLT-4, 48 h, 48 h exposure. The procedure:
as §1, §2

Experimental findings from patent US12649733B2, “3,6-diamino-pyridazin-3-yl derivatives, pharmaceutical compositions containing them and their uses as pro-apoptotic agents” (LES LABORATOIRES SERVIER, priority 2019, dated 2026) are described below.

Each structure is given as a SMILES string.

Broadly, the IC50 is the midpoint of a concentration-inhibition curve. `Cc1c(Nc2nc(C(=O)O)cs2)nnc(Nc2nc3ccccc3s2)c1C` [Example 1] registered an IC50 in the experiment with H146 cells of 15 µM.

In turn, `Cc1cc(Nc2nc(C(=O)O)cs2)nnc1Nc1nc2ccccc2s1` [Example 7, 2-({6-[(1,3-Benzothiazol-2-yl)amino]-5-methylpyridazin-3-yl}amino)-1,3-thiazole-4-carboxylic acid] had an IC50 in the experiment on H146 cells of more than 15 µM.

For `O=C(O)c1csc(Nc2nnc(Nc3nc4ccccc4s3)c3c2CCCC3)n1` [Example 17, 2-[[4-(1,3-Benzothiazol-2-ylamino)-5,6,7,8-tetrahydrophthalazin-1-yl]amino]thiazole-4-carboxylic acid], the half-maximal inhibitory concentration (IC50) worked out at 13.4 µM with H146 cells and 7.88 µM in the experiment with MOLT-4 cells.

As for `Cc1c(Nc2nc(C(=O)O)cs2)nnc(Nc2nc3ccccc3s2)c1C1CC1` [Example 20, 2-({6-[(1,3-Benzothiazol-2-yl)amino]-5-cyclopropyl-4-methylpyridazin-3-yl}amino)-1,3-thiazole-4-carboxylic acid], the IC50 with H146 cells amounted to 3.35 µM; with MOLT-4 cells, 7.21 µM.

For `Cc1cc(N(C)c2nc(C(=O)O)cs2)nnc1Nc1nc2ccccc2s1` [Example 21, 2-({6-[(1,3-Benzothiazol-2-yl)amino]-5-methylpyridazin-3-yl}(methyl)amino)-1,3-thiazole-4-carboxylic acid], in the experiment on H146 cells, 9.58 µM corresponded to half-maximal inhibition (IC50).

`Cc1c(Nc2nc3ccccc3s2)nnc(N(C)c2nc(C(=O)O)cs2)c1C` [Example 26, 2-({6-[(1,3-Benzothiazol-2-yl)amino]-4,5-dimethylpyridazin-3-yl}(methyl)amino)-1,3-thiazole-4-carboxylic acid]: the IC50 in the experiment on H146 cells and in the experiment with MOLT-4 cells was more than 15 µM throughout.

In the case of `COCc1c(Nc2nc(C(=O)O)cs2)nnc(Nc2nc3ccccc3s2)c1C` [Example 29, 2-({6-[(1,3-Benzothiazol-2-yl)amino]-4-(methoxymethyl)-5-methylpyridazin-3-yl}amino)-1,3-thiazole-4-carboxylic acid], the IC50 in the experiment with H146 cells and in the experiment with MOLT-4 cells was more than 15 µM each time.

With `Cc1c(Nc2nc3ccccc3s2)nnc(Nc2nc(C(=O)O)cs2)c1CCCN1CCN(C)CC1` [Example 51, 2-({6-[(1,3-Benzothiazol-2-yl)amino]-5-methyl-4-[3-(4-methylpiperazin-1-yl)propyl]pyridazin-3-yl}amino)-1,3-thiazole-4-carboxylic acid], the IC50 with H146 cells and in the experiment on MOLT-4 cells was more than 15 µM throughout.

Consider `CNCC#Cc1ccc(OCCCc2sc(N(CCCC(O)CN(C)CCP(=O)(O)O)c3cc(C)c(Nc4nc5ccccc5s4)nn3)nc2C(=O)O)c(F)c1` (stereo not shown) [Example 196, 2-[[6-(1,3-Benzothiazol-2-ylamino)-5-methyl-pyridazin-3-yl]-[4-hydroxy-5-[methyl(2-phosphonoethyl)amino]pentyl]amino]-5-[3-[2-fluoro-4-[3-(methylamino)prop-1-ynyl]phenoxy]propyl]thiazole-4-carboxylic acid], for which the IC50 came out at 1.62 µM in the experiment on H146 cells and 0.879 µM in the experiment on MOLT-4 cells.

`CNCC#Cc1ccc(OCCCc2sc(N(CCC[N+](C)(C)C)c3cc(C)c(Nc4nc5ccccc5s4)nn3)nc2C(=O)[O-])c(F)c1` [Example 202, 2-[[6-(1,3-Benzothiazol-2-ylamino)-5-methyl-pyridazin-3-yl]-[3-(trimethylammonio)propyl]amino]-5-[3-[2-fluoro-4-[3-(methylamino)prop-1-ynyl]phenoxy]propyl]thiazole-4-carboxylate]: the IC50 with H146 cells amounted to 0.0748 µM; in the experiment with MOLT-4 cells it was 0.611 µM.

Consider `CNCC#Cc1ccc(OCCCc2sc(N(CCCCN(C)C)c3cc(C)c(Nc4nc5ccccc5s4)nn3)nc2C(=O)O)c(F)c1` [Example 210, 2-[[6-(1,3-Benzothiazol-2-ylamino)-5-methyl-pyridazin-3-yl]-[4-(dimethylamino)butyl]amino]-5-[3-[2-fluoro-4-[3-(methylamino)prop-1-ynyl]phenoxy]propyl]thiazole-4-carboxylic acid], for which the values for the IC50 in the experiment with H146 cells and with MOLT-4 cells were 0.0214 µM and 0.0203 µM, respectively.
